From ChEMBL document CHEMBL5154904, “Discovery and Structural Basis of the Selectivity of Potent Cyclic Peptide Inhibitors of MAGE-A4” (J Med Chem, 2022) come the findings set out here.

Changes are numbered by the printed parent chain. Active and inactive are the calls of the source. No cut-off for these calls is given here. Positions of bridges follow the written chain, without caps; N, C: chain ends. Residues, ends and D or L forms follow the SMILES beside them.

Assay [1] relates to T1, Melanoma-associated antigen 4 (Homo sapiens), P43358 [M161A].
T1 sequence (whole entry): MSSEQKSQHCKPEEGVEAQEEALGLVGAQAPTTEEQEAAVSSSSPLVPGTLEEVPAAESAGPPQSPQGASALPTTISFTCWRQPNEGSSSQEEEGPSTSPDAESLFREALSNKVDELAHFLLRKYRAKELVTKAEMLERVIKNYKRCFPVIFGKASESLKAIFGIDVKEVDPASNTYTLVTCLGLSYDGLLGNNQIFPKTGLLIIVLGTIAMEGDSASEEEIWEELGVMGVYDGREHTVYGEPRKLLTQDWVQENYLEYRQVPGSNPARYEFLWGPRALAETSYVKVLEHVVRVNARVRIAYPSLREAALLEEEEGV
Briefly: Binding affinity to recombinant N-terminal His-tagged MAGEA4-MH domain M161A mutant (unknown origin) expressed in Escherichia coli BL21-(DE3) assessed as increase in thermal stability by SYPRO orange dye based differential scanning fluorimetry. The conditions noted are these: dose 10.0 µM. In general terms: DSF heats the sample and reads unfolding from a dye or from intrinsic fluorescence.

Assay [2] relates to T2, Melanoma-associated antigen 4 (Homo sapiens), P43358 [I205A].
T2 sequence (whole entry): T1 sequence (whole entry) with A161M, I205A
As to the kind of experiment: Binding affinity to recombinant N-terminal His-tagged MAGEA4-MH domain I205A mutant (unknown origin) expressed in Escherichia coli BL21-(DE3) assessed as increase in thermal stability by SYPRO orange dye based differential scanning fluorimetry. The conditions noted are these: dose <= 10.0 µM.

The species entered for assay [3] is Homo sapiens. Briefly: Inhibition of Eu-W1024 streptavidin-labeled 6 xHis-tagged MAGEA4-MH domain I205A mutant (unknown origin) expressed in Escherichia coli BL21-(DE3) interaction with Ulight-labeled GST-tagged RAD18 (unknown origin) (267 to 402 residues) at 1 uM by LANCE TR-FRET assay.
The test system of assay [4] is T3, Melanoma-associated antigen 4 (Homo sapiens), P43358 [M229A].
T3 sequence (whole entry): T1 sequence (whole entry) with A161M, M229A
Briefly: Binding affinity to recombinant N-terminal His-tagged MAGEA4-MH domain M229A mutant (unknown origin) expressed in Escherichia coli BL21-(DE3) assessed as increase in thermal stability by SYPRO orange dye based differential scanning fluorimetry. The following applies: dose <= 10.0 µM.

Assay [5] has as its system T4, Melanoma-associated antigen 4 (Homo sapiens), P43358 [R299A].
T4 sequence (whole entry): T1 sequence (whole entry) with A161M, R299A
As to the kind of experiment: Binding affinity to recombinant N-terminal His-tagged MAGEA4-MH domain R299A mutant (unknown origin) expressed in Escherichia coli BL21-(DE3) assessed as increase in thermal stability by SYPRO orange dye based differential scanning fluorimetry. The conditions noted are these: dose <= 10.0 µM.

The next assay deals with NCI-H1299. Briefly: Inhibition of MAGEA4 in human NCI-H1299 cell lysate interaction with HA-tagged RAD18 (unknown origin) at 1 uM incubated for overnight by co-immunoprecipitation pull down assay. It counts as subcellular.
The species named for assay [6] is Homo sapiens. As to the kind of experiment: Inhibition of Eu-W1024 streptavidin-labeled 6 xHis-tagged MAGEA4-MH domain E225A mutant (unknown origin) expressed in Escherichia coli BL21-(DE3) interaction with Ulight-labeled GST-tagged RAD18 (unknown origin) (267 to 402 residues) at 1 uM by LANCE TR-FRET assay.
Assay [7] is described as follows: Inhibition of Eu-W1024 streptavidin-labeled 6 xHis-tagged MAGEA4-MH domain (unknown origin) expressed in Escherichia coli BL21-(DE3)/GST-tagged RAD18 (unknown origin) (267 to 402 residues) interaction using Ulight-anti-GST antibody incubated for 30 to 60 mins by LANCE TR-FRET assay. Also noted: species or system Homo sapiens. Background: In TR-FRET formats the signal depends on donor and acceptor labels being close together.

Assay [8] has as its system T5, Melanoma-associated antigen 4 (Homo sapiens), P43358 [V228A].
T5 sequence (whole entry): T1 sequence (whole entry) with A161M, V228A
Briefly: Binding affinity to recombinant N-terminal His-tagged MAGEA4-MH domain V228A mutant (unknown origin) expressed in Escherichia coli BL21-(DE3) assessed as increase in thermal stability by SYPRO orange dye based differential scanning fluorimetry. The following applies: dose <= 10.0 µM.

A word on the IC50: it is the concentration that inhibits the measured activity by half. A higher IC50 goes with lower potency. Turning to `CC[C@H](C)[C@@H]1NC(=O)[C@H](Cc2ccc(O)cc2)NC(=O)CSC[C@@H](C(N)=O)NC(=O)[C@H](CC(N)=O)NC(=O)[C@H](Cc2cnc[nH]2)NC(=O)[C@H](Cc2ccc(O)cc2)NC(=O)[C@H](CC(=O)O)NC(=O)[C@H](Cc2ccc(O)cc2)NC(=O)[C@H](CC(C)C)NC(=O)[C@H](CCCNC(=N)N)NC1=O` ({CH2CO}-YIRLYDYHNC-NH2; thioether N-10), the Tm in assay [1], in assay [2], in [4], in assay [5] and in assay [8] was less than 3.5 °C each time. Also, the inhibition entry in the assay filed under Homo sapiens [3], in the assay on NCI-H1299 and in the assay filed under Homo sapiens [6] was “Active” each time. The compound also registered a half-maximal inhibitory concentration (IC50) in assay [7] of 3.65 nM.
